Measured values from patent US20260027243A1, “AMPHIPHILIC COMPOUNDS FOR ATTENUATING NEUROTOXICITY OF AMYLOID-beta OLIGOMERS AND DIAGNOSTIC METHODS” (THE BOARD OF TRUSTEES OF THE UNIVERSITY OF ILLINOIS, priority 2022, published 2026).
Where two headings read alike, the source gives them in different places.

What was measured:
Aβ42 fibrils = biological target: T1, Aβ42 fibrils (Homo sapiens, UniProt P05067); assay: Fluorescence saturation binding assay with Aβ42 fibrils; conditions: read-out: Kd, Fibrils
T1 construct: commercial Aβ42 monomer powder (from GL biochem); purchased GL biochem
T1 sequence (P05067 672-713 limits assumed): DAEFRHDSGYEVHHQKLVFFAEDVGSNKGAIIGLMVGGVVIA
Method: Preparation of the Aβ42 Fibrils and Aβ42 Oligomers. Aβ42 fibrils: 1 mg of commercial Aβ42 monomer powder (from GL biochem) was dissolved in 1 mL 1,1,1,3,3,3-hexafluoro-2-propanol (HFIP) at room temperature and incubated for 1 h. The resulting solution was divided equally into two Eppendorf tubes. The solution in each Eppendorf tube containing 0.5 mg Aβ42 monomer was then evaporated overnight and dried by vacuum centrifuge to generate monomeric films. […] Aβ42 fibrils solution was prepared by dissolving the 0.5 mg monomeric films in 1.1 mL PBS buffer (with final DMSO concentration less than 1%) and stirring at 37° C. for 3 days.
(§1) In Vitro Saturation Binding Studies with Aβ42 Fibrils and Aβ42 Oligomers. To a solution of increasing concentrations of compounds, a fixed concentration of the generated aggregated Aβ42 fibrils or Aβ42 oligomers solutions (5 to 15 NM) was added to yield a total volume of 100 μL. Nonspecific binding was determined […]. The mixture was incubated for 15 min at room temperature. All fluorescence data were obtained on a SpectraMax M2e plate reader (Molecular Devices). The fluorescent intensity was measured at the corresponding emission wavelength of each compound, and the Kd binding curves were generated by GraphPad Prism 8.0 with one site-specific binding model. Equation: Y=Bmax*X/(Kd+X).

Aβ42 oligomers = biological target: T2, Aβ42 oligomers (Homo sapiens, UniProt P05067); assay: Fluorescence saturation binding assay with Aβ42 oligomers; conditions: for Kd: read-out: Kd, Oligomers
T2 construct: commercial Aβ42 monomer powder (from GL biochem); purchased GL biochem
T2 sequence (P05067 672-713 limits assumed): as above
Method: Aβ42 oligomers: The 0.5 mg monomeric films were dissolved in 1.1 mL PBS buffer (with final DMSO concentration less than 1%) and incubated at 4° C. overnight. The resulting solution was then centrifuged at 3000 rpm for 15 mins to remove the insoluble aggregates. The clear supernatant was then used for the following experiments. Aβ42 oligomers concentration was checked by measuring the absorbance of the supernatant at 280 nm.
as §1

[1] = Log D by octanol-PBS partition; assay type: physicochemical; conditions: DCM compounds
Method: Log D measurements. The Log D value was measured following a published procedure using slight modifications. In general, compounds in 0.5 mL octanol was subjected to partition with 0.5 mL octanol-saturated PBS. The whole mixture was stirred vigorously for 5 min, and centrifuged at 2,000 rpm for 5 min. The top octanol layer was separated for later fluorescence measurement. The remaining PBS layer was partitioned with 0.5 mL PBS-saturated octanol, and the second top octanol layer was then separated after vigorous stirring and centrifuging at 2,000 rpm for another 5 min. The two octanol layers' fluorescence spectra were recorded. The log D value was calculated by the fluorescence intensity ratio at the compounds' emission wavelength for the above two octanol extractions.

[2] = biological target: T3, native Aβ species in 5×FAD mice brain sections (Homo sapiens, UniProt P05067); assay: Fluorescence staining of 5×FAD mice brain sections, colocalization; parameters: species or system mouse; conditions: 5×FAD brain sections, compared with ThS
T3 construct: from tissue; host or cells: brain sections of 5×FAD transgenic mice
T3 sequence (P05067 672-713 limits assumed): as above
Method: Histological Staining of 5×FAD Mice Brain Sections. 5×FAD transgenic mice brain sections were blocked with bovine serum albumin (2% BSA in PBS, pH 7.4, 10 min). Then the mice brain sections were transferred to a PBS solution of the compound and incubated for 1 h. […] Then, the brain sections were treated with BSA again (5 min) followed by washing with PBS (3×2 min), DI water (3×2 min). Finally, the mice brain sections were mounted with non-fluorescent mounting media, and the images were obtained by using EVOS FL Auto 2. ImageJ Fiji program was used for colocalization analysis and determination of the Pearson's correlation coefficient. The primary antibodies were labeled with dye CF594 via Mix-n-Stain™ CF™ 594 Antibody Labeling Kit (Sigma Aldrich).

[3] = system: native Aβ aggregates in AD mice brain; assay: BBB permeability: in vivo accumulation after intraperitoneal treatment, brain section colocalization; parameters: species or system mouse; conditions: 12-month-old AD mice, 0.1 mg/Kg, 10 days
Method: FIG. 13. In vivo accumulation of DCM-OH-2-DT. Fluorescence microscopy images of brain sections from 12-month-old 5×FAD mice administered with DCM-OH-2-DT for 10 days. The brain sections were stained with Thioflavin S (ThS); [ThS]=5 μM, scale bar=125 μm.
Fluorescence Imaging of 5×FAD Mouse Brain Sections and blood-brain barrier (BBB) permeability. To confirm the developed compounds can also bind to native Aβ aggregates, we performed fluorescence imaging studies and colocalization experiments on 5×FAD mouse brain sections. […] This further supports that the compounds are selective and can bind to native soluble Aβ oligomers. Before investigating the blood-brain barrier (BBB) permeability of the developed compounds, their neurotoxicity was measured first (FIG. 12). […] DCM-OH-2 leads to less than 80% cell viability even at 2 μM, which is probably due to its poor solubility. Nevertheless, the DCM-OH-2-DT was chosen as the candidate to test the blood-brain barrier (BBB) permeability. 12-month-old AD mice were treated with compound DCM-OH-2-DT (0.1 mg/Kg) for 10 days via intraperitoneal injection. At the end of treatment, mice brains were harvested and colocalization experiments were performed on the mice brain sections.

[4] = system: brain region of 5×FAD mice vs. WT mice; assay: Real-time in vivo NIR fluorescence imaging; parameters: species or system mouse; conditions: 5 mg/kg
Method: DCM-OH-2-DT was chosen as the best candidate for real-time in vivo fluorescence imaging studies. Seven-month-old AD mice and age-matched wild type (WT) mice were injected with the compound at 5 mg/kg. The NIR fluorescence intensities from the brain region were collected and analyzed over time. […] These imaging results further support the potential in vivo application of the developed compounds.
In vivo Imaging Studies. The real-time in vivo fluorescence imaging studies were performed with IVIS imaging system. 7-month-old 5×FAD mice (n=3) and age-matched control B6SJLF1/J mice (n=3) were shaved at the brain region before background imaging. All mice were injected with DCM-OH-2-DT (5 mg/kg, 15% DMSO, 85% PBS) via jugular vein injection. The mice were kept on the imaging stage under anesthesia with 2.5% isoflurane gas in an oxygen flow (1.5 L/min) before the imaging and were woken up after the imaging. Fluorescence signals from the brain were recorded at 5-, 15-, 30-, 60-min after the injection of DCM-OH-2-DT with a filter set (excitation at 470 nm and emission at 740 nm). Imaging data was analyzed by Living Image software, and an ROI was drawn around the brain region. The data were analyzed by subtracting the background fluorescence intensity of each mouse. P values were calculated by Student's t test.

[5] = biological target: T4, Aβ42 fibrils and oligomers (Homo sapiens, UniProt P05067); assay: Fluorescence turn-on with Aβ42 fibrils and oligomers; assay type: binding
T4 construct: commercial Aβ42 monomer powder (from GL biochem); purchased GL biochem
T4 sequence (P05067 672-713 limits assumed): as above
Method: Fluorescence Spectral Testing of Compounds with Aps2 Fibrils and Aβ42 Oligomers. The formation of Aβ42 fibrils and oligomers was confirmed by the ThT fluorescence turn-on assay. The fluorescence spectra of ThT in PBS (100 μL PBS, 10.0 μM) were recorded as the baseline. After that, either Aβ42 fibrils or oligomers were added to ThT in PBS. The final volume of the solution mixture should be 100 μL, in which the final concentrations of ThT and Aβ42 species were10. μM and 25 μM, respectively.
For the interactions between Aps and compounds, the fluorescence spectra of the compounds' solution (100 μL PBS, 5.0 μM) were recorded as the baseline without adding various Aβ42 species.
After that, either Aβ42 fibrils or oligomers were added to the compounds' solutions in PBS. The final volume of the solution mixture should be 100 μL, in which the final concentrations of the compound and Aβ42 species were 5. μM and 25 μM, respectively.

[6] = system: Cu^2+-Aβ42-induced toxicity in Neuro2A cells; assay: Cu2+-Aβ42-induced toxicity, Alamar blue cell viability; assay type: cell-based, mouse; conditions: [Aβ42]=40 μM, [Cu^2+]=40 μM, compound 10 μM (ZY-12-OMe 5 μM)
Method: FIG. 6. Cell viability results upon incubation of Neuro2A cells with monomeric Aβ42 in the presence or absence of metal ions and amphiphilic compounds. Concentrations: [Aβ42]=40 μM, [Cu^2+]=40 μM, [ZY-12-MT]=[ZY-15-OMe]=[ZY-15-MT]=[ZY-17-MT]=[ZY-5-OMe]=[ZY-5-MT]=[ZY-5-DT]=10 μM, [ZY-12-OMe]=5 μM. The error bars represent the standard deviation from five independent experiments, and the statistical analysis was evaluated according to one-way ANOVA (*p<0.05).
For the Cu^2+-Ap-induced toxicity studies, cells treated were monomeric Aβ42, Cu^2+, monomeric Aβ42+Cu^2+, and monomeric Aβ42+Cu^2++ compounds, respectively. After 40 h incubation, Alamar Blue solution (10 μL) was added, and the cells were incubated for another 90 min at 37° C. The fluorescence intensity of each well was measured at 590 nm (excitation wavelength=560 nm).

[7] = system: interactions between Aβ oligomers and SH-SY5Y cell membranes; assay: Confocal imaging of Aβ oligomers binding to SH-SY5Y cell membranes; assay type: cell-based, human; conditions: 5 μM Aβ oligomers, 5 μM compound, 24 h
Method: (§2) Cell Imaging Procedures. For oligomers and fibrils imaging: Human neuroblastoma SH-SY5Y cells were grown with DMEM/10% FBS at 37° C. in a humidified atmosphere with 5% CO2, and an 8-well μ-slides (ibidi) chambered coverslip was seeded the SH-SY5Y cells. At about 80% confluency (24 h after seeding), the cells were treated with DMSO as control group, 5 μM oligomers/fibrils and 5 μM (oligomers/fibrils+ compounds), respectively. After 24 h incubation, the media was removed from each well. The cells were then fixed with 200 μL 3.7% formaldehyde for 15 min and blocked with 200 μL 3% BSA for 10 min. 3% BSA was then removed from the cells and replaced with 100 μL CF594-HJ 3.4 (1 μg/mL in 3% BSA). The cells were incubated with CF594-HJ 3.4 for 2 h at room temperature and were washed with PBS (5×100 μL). Before imaging, the cells in each well were stained with 100 μL NucBlue reagent (Thermo Fisher Scientific) for 15 min and mounted with non-fluorescent mounting media. 5-10 images of each well were taken, and the images were processed and analyzed by Fiji and Zeiss Zen lite software. Three individual replicates were conducted and subjected to the statistical analysis.

[8] = system: interactions between Aβ fibrils and SH-SY5Y cell membranes; assay: Confocal imaging of Aβ fibrils binding to SH-SY5Y cell membranes; assay type: cell-based, human; conditions: 5 μM fibrils, 5 μM compound, 24 h
Method: as §2

[9] = system: interactions between Cu-Aβ species and SH-SY5Y cell membranes; assay: Confocal imaging of Cu-Aβ species binding to SH-SY5Y cell membranes; assay type: cell-based, human; conditions: 5 μM Aβ monomers + Cu^2+ + compound, 48 h
Method: For monomers +Cu^2+ imaging: SH-5Y5Y were seeded as mentioned above, and cells were treated with DMSO as control group, 5 μM monomers, 5 μM (monomers +CuCl2) and 5 μM (monomers +CuCl2+compounds) respectively. After 48 h incubation, cells were treated and imaged the same way as mentioned above.

Row | Structure (SMILES) | Kd (Aβ42 fibrils; Table 3, DCM compounds) | Kd (Aβ42 oligomers; Table 3, DCM compounds) | logD [1] | region of Aβ aggregates bound [2] | colocalization with ThS after in vivo administration [3] | time to maximum brain NIR fluorescence signal after injection ([4]; jugular vein injection) | brain fluorescence signal, AD mice vs WT mice ([4]; 7-month-old mice, 5-, 15-, and 30-min post injection) | maximum emission wavelength when binding to Aβ aggregates [5] | binding affinity towards Aβ42 oligomers over fibrils (Aβ42 oligomers; DCM compounds) | Kd (Aβ42 fibrils; Table 1, amphiphilic compounds) | Kd (Aβ42 oligomers; Table 1, amphiphilic compounds) | effect on cell viability under Cu^2+-Aβ42 toxicity [6] | Aβ oligomers bound to cell membranes [7] | Aβ fibrils binding to cell membranes [8] | Cu-Aβ species interactions with cell membranes [9] | binding affinity to oligomers compared with fibrils (Kd comparison) (Aβ42 oligomers; amphiphilic ZY compounds)
1 | CN1CCN(C)CCN(Cc2cc(/C=C/C=C/C3=CC(=C(C#N)C#N)c4ccccc4O3)cc(CN3CCN(C)CCN(C)CC3)c2O)CC1 [DCM-OH-2-DT, 2-(2-((1E,3E)-4-(3,5-bis((4,7-dimethyl-1,4,7-triazonan-1-yl)methyl)-4-hydroxyphenyl)buta-1,3-dien-1-yl)-4H-chromen-4-ylidene)malononitrile] | 500 ± 110 nM | 430 ± 60 nM | 1.2 ± 0.07 | bind to the peripheral region of the Aβ aggregates | good colocalization with ThS | about 15 min | significantly higher fluorescence signal in AD mice | 730 nm |  |  |  |  |  |  |  | 
2 | CN1CCN(C)CCN(Cc2cc(/C=C/C=C/C3=CC(=C(C#N)C#N)c4ccccc4O3)ccc2O)CC1 [DCM-OH-2-MT, 2-(2-((1E,3E)-4-(3-((4,7-dimethyl-1,4,7-triazonan-1-yl)methyl)-4-hydroxyphenyl)buta-1,3-dien-1-yl)-4H-chromen-4-ylidene)malononitrile] | 780 ± 110 nM | 230 ± 30 nM | 1.13 ± 0.16 | bind to the peripheral region of the Aβ aggregates |  |  |  |  | three times higher binding affinity towards Aβ42 oligomers over fibrils |  |  |  |  |  |  | 
3 | CN1CCN(C)CCN(Cc2cc(/C=C/c3ccc(-c4ccc(C=O)cc4)s3)ccc2O)CC1 [ZY-15-MT, (E)-4-(5-(3-((4,7-dimethyl-1,4,7-triazonan-1-yl)methyl)-4-hydroxystyryl)thiophen-2-yl)benzaldehyde] |  |  |  |  |  |  |  |  |  | 530 ± 30 nM | 2030 ± 110 nM | significantly increase cell viability | fewer numbers of Aβ oligomers bound to the cell membranes | not able to significantly decrease the numbers of the Aβ fibrils binding to cell membranes | significantly decreased interactions with cell membranes | 
4 | COc1cc(/C=C/c2ccc(-c3ccc(C=O)cc3)s2)cc(CN2CCN(C)CCN(C)CC2)c1O [ZY-15-OMe, (E)-4-(5-(3-((4,7-dimethyl-1,4,7-triazonan-1-yl)methyl)-4-hydroxy-5-methoxystyryl)thiophen-2-yl)benzaldehyde] |  |  |  |  |  |  |  |  |  | 1240 ± 180 nM | 470 ± 130 nM | significantly increase cell viability | fewer numbers of Aβ oligomers bound to the cell membranes | not able to significantly decrease the numbers of the Aβ fibrils binding to cell membranes | significantly decreased interactions with cell membranes | higher binding affinity to oligomers over fibrils
